Experimental data reported in patent US20240166652A1, “MODULATORS OF THE INTEGRATED STRESS PATHWAY” (Calico Life Sciences LLC, priority 2017, published 2024).

Each molecule was assayed on ATF4 luciferase reporter in HEK293T cells (assay: ATF4-Luc assay (ATF4 luciferase reporter, tunicamycin-treated HEK293T cells)). Settings: Homo sapiens, HEK-293T; HEK293T cells carrying the ATF4 luciferase reporter, 1 μg/mL tunicamycin, 7 hours.
Assay type: cell-based, human

Question: Which EC50 does the source give for `O=C(COc1ccc(Cl)c(CO)c1)NC12CCC(NC(=O)COc3ccc(Cl)c(CO)c3)(CC1)[C@@H](O)C2` [Compound 592, N,N′-[(2S)-2-hydroxybicyclo[2.2.2]octane-1,4-diyl]bis{2-[4-chloro-3-(hydroxymethyl)phenoxy]acetamide}] here?
Answer: Its EC50 is 500 to 2000 nM.

Question: Which EC50 does the source give for `Cc1noc2cc(OCC(=O)NC34CC(NC(=O)COc5ccc(Cl)c(F)c5)(C3)C4)ccc12` [Compound 110, 2-(4-chloro-3-fluorophenoxy)-N-(3-{2-[(3-methyl-1,2-benzoxazol-6-yl)oxy]acetamido}bicyclo[1.1.1]pentan-1-yl)acetamide] here?
Answer: Its EC50 is 500 to 2000 nM.

Question: `O=C(COc1ccc(Cl)c(F)c1)NC12CC(NC(=O)Cc3ccc(C(F)(F)F)nc3)(C1)C2` [Compound 342, 2-(4-chloro-3-fluorophenoxy)-N-(3-{2-[6-(trifluoromethyl)pyridin-3-yl]acetamido}bicyclo[1.1.1]pentan-1-yl)acetamide] was tested. Which EC50 did it give?
Answer: The EC50 was 250 to 500 nM.

Question: How did the EC50 turn out when `O=C(COc1ccc(C(F)(F)F)c(F)c1)NC12CCC(NC(=O)COc3ccc(F)cc3)(CC1)[C@@H](O)C2` [Compound 844, 2-(4-fluorophenoxy)-N-[(2S)-4-{2-[3-fluoro-4-(trifluoromethyl)phenoxy]acetamido}-2-hydroxybicyclo[2.2.2]octan-1-yl]acetamide] was run?
Answer: The EC50 was < 10 nM.

Question: Which EC50 does the source give for `O=C(COc1ccc(Cl)c(F)c1)N[C@@H]1[C@@H]2CC[C@@](NC(=O)COc3ccc(Cl)c(F)c3)(C2)C[C@H]1O` (racemic) [Compound 625, rac-N,N′-[(1R,3R,4R,5R)-3-hydroxybicyclo[3.2.1]octane-1,4-diyl]bis[2-(4-chloro-3-fluorophenoxy)acetamide]] here?
Answer: The EC50 was < 10 nM.

Question: For `O=C(COc1ccc(Cl)c(F)c1)NC12CC(NCc3ccccc3)(C1)C2` [Compound 551, N-[3-(benzylamino)bicyclo[1.1.1]pentan-1-yl]-2-(4-chloro-3-fluorophenoxy)acetamide], which EC50 is on record?
Answer: Its EC50 is 500 to 2000 nM.

Question: `Cc1ccc(OCC(=O)NC23CCC(NC(=O)COc4ccc5c(C)n[nH]c5c4)(CC2)[C@@H](O)C3)cc1` [Compound 746, N-{(2S)-2-hydroxy-4-[2-(4-methylphenoxy)acetamido]bicyclo[2.2.2]octan-1-yl}-2-[(3-methyl-1H-indazol-6-yl)oxy]acetamide] was tested. Which EC50 did it give?
Answer: The EC50 was 10 to 50 nM.

Question: Which EC50 does the source give for `O=C(COc1ccc(Cl)c(F)c1)NC12CC(NCC(O)c3ccc(Cl)c(F)c3)(C1)C2` (stereo not drawn) [Compound 292, 2-(4-chloro-3-fluorophenoxy)-N-(3-{[2-(4-chloro-3-fluorophenyl)-2-hydroxyethyl]amino}bicyclo[1.1.1]pentan-1-yl)acetamide] here?
Answer: The EC50 was 500 to 2000 nM.

Question: Which EC50 does the source give for `O=C(COc1ccc(Cl)c(F)c1)NC12CCC(NC(=O)COc3ccc4c(c3)OC(F)(F)O4)(C1)C2` [Compound 380, 2-(4-chloro-3-fluorophenoxy)-N-(4-{2-[(2,2-difluoro-2H-1,3-benzodioxol-5-yl)oxy]acetamido}bicyclo[2.1.1]hexan-1-yl)acetamide] here?
Answer: Its EC50 is 10 to 50 nM.

Question: Which EC50 does the source give for `O=C(CNC(=O)OCc1ccccc1)NC12CC(NC(=O)COc3ccc(Cl)c(F)c3)(C1)C2` [Compound 304, benzyl [2-({3-[2-(4-chloro-3-fluorophenoxy)acetamido]bicyclo[1.1.1]pentan-1-yl}amino)-2-oxoethyl]carbamate] here?
Answer: Its EC50 is 500 to 2000 nM.

Question: For `O=C(COc1ccc(Cl)cc1)NC12C3C4C1C1C2C3C41NC(=O)COc1ccc(Cl)cc1` (stereo not drawn) [Compound 103, N,N′-(pentacyclo[4.2.0.0^2,50^3,80^4,7]octane-1,4-diyl)bis[2-(4-chlorophenoxy)-acetamide]], which EC50 is on record?
Answer: Its EC50 is 10 to 50 nM.

Question: For `O=C(COc1ccc(Cl)c(F)c1)NC12CCC(NC(=O)COc3ccc(Cl)c(F)c3)(CC1)C(NCCO)C2` (stereo not drawn) [Compound 707, N,N′-{2-[(2-hydroxyethyl)amino]bicyclo[2.2.2]octane-1,4-diyl}bis[2-(4-chloro-3-fluorophenoxy)acetamide]], which EC50 is on record?
Answer: The EC50 was < 10 nM.

Question: For `O=C(COCCc1cccc(F)c1)NC12CC(NC(=O)COc3ccc(Cl)c(F)c3)(C1)C2` [Compound 132, 2-(4-chloro-3-fluorophenoxy)-N-(3-{2-[2-(3-fluorophenyl)ethoxy]acetamido}-bicyclo[1.1.1]pentan-1-yl)acetamide], which EC50 is on record?
Answer: Its EC50 is 50 to 250 nM.

Question: How did the EC50 turn out when `CN(C(=O)COc1ccc(Cl)c(F)c1)C12CCC(NC(=O)COc3ccc(Cl)c(F)c3)(CC1)C[C@@H]2O` [Compound 375, 2-(4-chloro-3-fluorophenoxy)-N-{(2S)-4-[2-(4-chloro-3-fluorophenoxy)acetamido]-2-hydroxybicyclo[2.2.2]octan-1-yl}-N-methylacetamide] was run?
Answer: Its EC50 is 50 to 250 nM.

Question: With `O=C(COCCc1ccc(Cl)cc1)NC12CC(NC(=O)COc3ccc(Cl)c(F)c3)(C1)C2` [Compound 135, 2-(4-chloro-3-fluorophenoxy)-N-(3-{2-[2-(4-chlorophenyl)ethoxy]acetamido}-bicyclo[1.1.1]pentan-1-yl)acetamide] as the molecule, how does the EC50 read?
Answer: Its EC50 is 250 to 500 nM.

Question: With `Cc1cnc(OCC(=O)NC23CCC(NC(=O)COc4ccc(Cl)c(F)c4)(CC2)[C@@H](O)C3)s1` [Compound 575, 2-(4-chloro-3-fluorophenoxy)-N-[(2S)-2-hydroxy-4-{2-[(5-methyl-1,3-thiazol-2-yl)oxy]acetamido}bicyclo[2.2.2]octan-1-yl]acetamide] as the molecule, how does the EC50 read?
Answer: Its EC50 is > 2000 nM.

Question: `O=C(COCCc1ccc(F)cc1)NC12CC(NC(=O)COc3ccc(Cl)c(F)c3)(C1)C2` [Compound 134, 2-(4-chloro-3-fluorophenoxy)-N-(3-{2-[2-(4-fluorophenyl)ethoxy]acetamido}-bicyclo[1.1.1]pentan-1-yl)acetamide] was tested. Which EC50 did it give?
Answer: Its EC50 is 50 to 250 nM.

Question: `O=C(COc1ccc(F)c(F)c1)NC12CCC(NC(=O)COc3ccc(F)c(F)c3)(CC1)C(O)C2` (stereo not drawn) [Compound 363, N,N′-(2-hydroxybicyclo[2.2.2]octane-1,4-diyl)bis[2-(3,4-difluorophenoxy)acetamide]] was tested. Which EC50 did it give?
Answer: Its EC50 is < 10 nM.

Question: `COc1cc(OCC(=O)NC23CCC(NC(=O)COc4ccc(Cl)c(F)c4)(CC2)[C@@H](O)C3)ccc1Cl` [Compound 465, 2-(4-chloro-3-fluorophenoxy)-N-{(2S)-4-[2-(4-chloro-3-methoxyphenoxy)acetamido]-2-hydroxybicyclo[2.2.2]octan-1-yl}acetamide] was tested. Which EC50 did it give?
Answer: Its EC50 is < 10 nM.

Question: Which EC50 does the source give for `O=C(COc1ccc(Cl)cc1)NC12CCC(NC(=O)COc3cc(F)c4cn[nH]c4c3)(CC1)CC2` [Compound 739, 2-(4-chlorophenoxy)-N-(4-{2-[(4-fluoro-1H-indazol-6-yl)oxy]acetamido}bicyclo[2.2.2]octan-1-yl)acetamide] here?
Answer: The EC50 was < 10 nM.

Question: With `O=C(COc1ccc(Cl)c(F)c1)NC12CC(N(CCCOc3ccc(Cl)c(F)c3)CCCOc3ccc(Cl)c(F)c3)(C1)C2` [Compound 704, N-(3-{bis[3-(4-chloro-3-fluorophenoxy)propyl]amino}bicyclo[1.1.1]pentan-1-yl)-2-(4-chloro-3-fluorophenoxy)acetamide] as the molecule, how does the EC50 read?
Answer: The EC50 was 250 to 500 nM.

Question: Which EC50 does the source give for `O=C(COc1ccc(Cl)c(F)c1)NC12CC(NC(=O)CN(CCO)c3ccc(Cl)cc3)(C1)C2` [Compound 609, 2-(4-chloro-3-fluorophenoxy)-N-(3-{2-[(4-chlorophenyl)(2-hydroxyethyl)amino]acetamido}bicyclo[1.1.1]pentan-1-yl)acetamide] here?
Answer: Its EC50 is > 2000 nM.

Question: With `O=C(COc1ccc(Cl)c(F)c1)NC12CC(NC(=O)COc3cnc4ccoc4c3)(C1)C2` [Compound 255, 2-(4-chloro-3-fluorophenoxy)-N-(3-{2-[(furo[3,2-b]pyridin-6-yl)oxy]acetamido}bicyclo[1.1.1]pentan-1-yl)acetamide] as the molecule, how does the EC50 read?
Answer: Its EC50 is 50 to 250 nM.

Question: Which EC50 does the source give for `O=C(COCc1ccc(OC(F)F)nc1)NC12CC(NC(=O)COc3ccc(Cl)c(F)c3)(C1)C2` [Compound 279, 2-(4-chloro-3-fluorophenoxy)-N-[3-(2-{[6-(difluoromethoxy)pyridin-3-yl]methoxy}acetamido)bicyclo[1.1.1]pentan-1-yl]acetamide] here?
Answer: Its EC50 is 250 to 500 nM.

Question: With `Cc1cccc(CCOCC(=O)NC23CC(NC(=O)COc4ccc(Cl)c(F)c4)(C2)C3)c1` [Compound 136, 2-(4-chloro-3-fluorophenoxy)-N-(3-{2-[2-(3-methylphenyl)ethoxy]acetamido}-bicyclo[1.1.1]pentan-1-yl)acetamide] as the molecule, how does the EC50 read?
Answer: Its EC50 is 250 to 500 nM.

Question: For `O=C(COc1ccc(Cl)c(F)c1)NC12CCC(NC(=O)COc3ccc(C(F)(F)F)cc3)(CC1)[C@@H](O)C2` [Compound 507, 2-(4-chloro-3-fluorophenoxy)-N-[(3S)-3-hydroxy-4-{2-[4-(trifluoromethyl)phenoxy]acetamido}bicyclo[2.2.2]octan-1-yl]acetamide], which EC50 is on record?
Answer: Its EC50 is < 10 nM.

Question: How did the EC50 turn out when `O=C(COc1cc(F)c2cn[nH]c2c1)NC12CCC(NC(=O)COc3ccc(C(F)(F)F)nc3)(CC1)[C@@H](O)C2` [Compound 720] was run?
Answer: The EC50 was < 10 nM.

Question: `Cc1ccc(OCC(=O)NC23CCC(NC(=O)COc4ccc(Cl)c(F)c4)(CC2)[C@@H](O)C3)cc1` [Compound 475, 2-(4-chloro-3-fluorophenoxy)-N-{(2S)-2-hydroxy-4-[2-(4-methylphenoxy)acetamido]bicyclo[2.2.2]octan-1-yl}acetamide] was tested. Which EC50 did it give?
Answer: Its EC50 is < 10 nM.

Question: For `O=C(COc1ccc(Cl)c(F)c1)NC12CCC(NC(=O)COc3ccc(Cl)c(F)c3)(CC1)[C@H](O)C2` (single isomer, unassigned) [Compound 298], which EC50 is on record?
Answer: The EC50 was < 10 nM.

Question: Which EC50 does the source give for `N#Cc1ccc(OCC(=O)NC23CC(NC(=O)COc4ccc5c(c4)OC(F)(F)O5)(C2)C3)cn1` [Compound 267, 2-[(6-cyanopyridin-3-yl)oxy]-N-(3-{2-[(2,2-difluoro-2H-1,3-benzodioxol-5-yl)oxy]acetamido}bicyclo[1.1.1]pentan-1-yl)acetamide] here?
Answer: Its EC50 is 50 to 250 nM.

Question: For `O=C(COc1ccc(Cl)cc1)NC12CCC(NC(=O)COc3ccc(F)c(C(F)(F)F)c3)(CC1)[C@@H](O)C2` [Compound 830, 2-(4-chlorophenoxy)-N-[(3S)-4-{2-[4-fluoro-3-(trifluoromethyl)phenoxy]acetamido}-3-hydroxybicyclo[2.2.2]octan-1-yl]acetamide], which EC50 is on record?
Answer: The EC50 was < 10 nM.

Question: Which EC50 does the source give for `O=C(COCc1ccc(F)cc1)NC12CC(NC(=O)COc3ccc(Cl)c(Cl)c3)(C1)C2` [Compound 157, 2-(3,4-dichlorophenoxy)-N-(3-{2-[(4-fluorophenyl)methoxy]acetamido}-bicyclo[1.1.1]pentan-1-yl)acetamide] here?
Answer: The EC50 was 10 to 50 nM.

Question: With `COCc1cc(OCC(=O)NC23CCC(NC(=O)COc4ccc(Cl)c(F)c4)(CC2)[C@@H](O)C3)ccc1Cl` [Compound 757, 2-(4-chloro-3-fluorophenoxy)-N-[(2S)-4-{2-[4-chloro-3-(methoxymethyl)phenoxy]acetamido}-2-hydroxybicyclo[2.2.2]octan-1-yl]acetamide] as the molecule, how does the EC50 read?
Answer: The EC50 was 10 to 50 nM.
